{"source": "patent US20220205049A1", "about": "“METHODS OF DETECTING AND PREDICTING BREAST CANCER” (priority 2019, published 2022)", "test_system": "breast tissue", "assay": "Mifepristone trial: breast tissue biopsies before and after treatment, DNA methylation (EPIC array), EpiDISH cell type composition and WID-BC-index", "assay_type": "in vivo, human", "from_the_text": "The second set of samples were obtained from the clinical trial “The Effect of a Progesterone Receptor Modulator on Breast Tissue in Women With BRCA-1 and -2 Mutations—a Placebo Controlled RCT” (ClinicalTrials.gov Identifier: NCT01898312; regional ethical review board at Karolinska Institutet permit 2009/144-31/4). Study subjects were healthy premenopausal women aged 18-43 years with regular menstrual cycles lasting 25-35 days and with no contraindications to mifepristone. The main exclusion criteria were: use of any hormonal or intrauterine contraception and pregnancy or breastfeeding 2 months prior to the study; a history of breast cancer or other malignancies and adnexal abnormality upon transvaginal ultrasound examination. All women were instructed to use barrier contraceptive methods throughout the duration of the study.\nAfter signing an informed consent, study subjects were randomised into two groups. One group (i.e. 11 BRCA carriers and 9 controls) was treated with 50 mg mifepristone (one quarter of 200 mg Mifegyne®, Exelgyn, Paris, France) every other day for two months (56 days) starting on the first day of the menstrual cycle. […]\nWe analysed breast tissue samples from 21 BRCA carriers and 23 healthy controls before and after treatment with either mifepristone or placebo for two months. […]", "data": [{"smiles": "CC#C[C@]1(O)CC[C@H]2[C@@H]3CCC4=CC(=O)CCC4=C3[C@@H](c3ccc(N(C)C)cc3)C[C@@]21C", "note": "[mifepristone]", "values": [{"measurement": "women with downward trend in the WID-BC-index after treatment", "setting": "breast tissue, after adjustment for fat content, before vs after two months treatment, did not reach statistical significance", "result": 80, "unit": "%"}, {"measurement": "epithelial cell proportion in breast tissue samples after treatment", "setting": "matched BRCA carrier and control groups, before vs after 50 mg every other day for two months, not seen in the placebo group", "result": "statistically significant decrease"}]}]}
